Laboratory results from ChEMBL document CHEMBL3045426, “Synthesis, Antiviral and Antibacterial Activities of Isatin Mannich Bases” (Med Chem Res, 2005).
Converted amounts (≈) assume the structure as drawn.

Key:
Hepatitis C virus = assay: Antiviral activity against Hepatitis C virus BM4-5 infected in Huh7 cells assessed as inhibition of viral RNA replication by phosphor screening method; format: functional, Hepacivirus hominis, Huh-7
[1] = system: Human immunodeficiency virus 1; assay: Antiviral activity against Human immunodeficiency virus 1 IIIB infected CEM cells assessed as protection against viral infection after 6 days by XTT assay; format: functional, CCRF-CEM; parameters: concentration or dose not given beside the values
Proteus vulgaris = assay: Antimicrobial activity against Proteus vulgaris after 18 to 20 hr by agar dilution method; format: functional
Shigella sonnei = assay: Antimicrobial activity against Shigella sonnei after 18 to 20 hr by agar dilution method; format: functional
Klebsiella pneumoniae [2] = assay: Antimicrobial activity against Klebsiella pneumoniae after 18 to 20 hr by agar dilution method; format: functional
[3] = system: Mycobacterium tuberculosis; assay: Antimycobacterial activity against Mycobacterium tuberculosis H37Rv ATCC 27294 at 6.25 ug/ml by MABA; format: functional
Citrobacter freundii = assay: Antimicrobial activity against Citrobacter freundii after 18 to 20 hr by agar dilution method; format: functional
Staphylococcus aureus = assay: Antimicrobial activity against Staphylococcus aureus after 18 to 20 hr by agar dilution method; format: functional
Escherichia coli = assay: Antimicrobial activity against Escherichia coli NCTC 10418 after 18 to 20 hr by agar dilution method; format: functional
Salmonella typhi = assay: Antimicrobial activity against Salmonella enterica subsp. enterica serovar Typhi after 18 to 20 hr by agar dilution method; format: functional
Shigella boydii = assay: Antimicrobial activity against Shigella boydii after 18 to 20 hr by agar dilution method; format: functional
Vibrio fluvialis = assay: Antimicrobial activity against Vibrio fluvialis after 18 to 20 hr by agar dilution method; format: functional
Vibrio cholerae [4] = assay: Antimicrobial activity against Vibrio cholerae 0139 after 18 to 20 hr by agar dilution method; format: functional; conditions: 139
[5] = system: Human immunodeficiency virus 1; assay: Antiviral activity against Human immunodeficiency virus 1 IIIB infected MT4 cells assessed as inhibition of virus-induced cytopathicity after 5 days by MTT assay; format: functional, organism-based; conditions: MT4, 120 h
Vibrio cholerae [6] = assay: Antimicrobial activity against Vibrio cholerae 01 after 18 to 20 hr by agar dilution method; format: functional; conditions: 1
Morganella morganii = assay: Antimicrobial activity against Morganella morganii after 18 to 20 hr by agar dilution method; format: functional
Priestia megaterium = assay: Antimicrobial activity against Bacillus megaterium after 18 to 20 hr by agar dilution method; format: functional
[7] = system: Human immunodeficiency virus 1; assay: Antiviral activity against Human immunodeficiency virus 1 IIIB infected MT4 cells assessed as protection against viral infection after 5 days by MTT assay; format: functional; parameters: concentration or dose not given beside the values
Enterobacter = assay: Antimicrobial activity against Enterobacter after 18 to 20 hr by agar dilution method; format: functional
Pseudomonas aeruginosa = assay: Antimicrobial activity against Pseudomonas aeruginosa after 18 to 20 hr by agar dilution method; format: functional
Salmonella paratyphi = assay: Antimicrobial activity against Salmonella enterica subsp. enterica serovar Paratyphi A after 18 to 20 hr by agar dilution method; format: functional
[8] = Cytotoxicity against Homo sapiens (human) CEM cells after 5 days by MTT assay; format: cell-based; conditions: CEM cells (CCRF-CEM)
Klebsiella pneumoniae [9] = assay: Antimicrobial activity against Klebsiella pneumoniae subsp. ozaenae after 18 to 20 hr by agar dilution method; format: functional
Plesiomonas = assay: Antimicrobial activity against Plesiomonas after 18 to 20 hr by agar dilution method; format: functional
Edwardsiella tarda = assay: Antimicrobial activity against Edwardsiella tarda after 18 to 20 hr by agar dilution method; format: functional
[10] = Cytotoxicity against Homo sapiens (human) HuH7 cells assessed as cell growth at 50 ug/ml after 3 days by Neutral red assay; format: cell-based, Huh-7; conditions: read-out: Activity
Vibrio mimicus = assay: Antimicrobial activity against Vibrio mimicus after 18 to 20 hr by agar dilution method; format: functional
Salmonella enteritidis = assay: Antimicrobial activity against Salmonella enterica subsp. enterica serovar Enteritidis after 18 to 20 hr by agar dilution method; format: functional
Proteus mirabilis = assay: Antimicrobial activity against Proteus mirabilis after 18 to 20 hr by agar dilution method; format: functional
[11] = system: Human immunodeficiency virus 1; assay: Antiviral activity against Human immunodeficiency virus 1 IIIB infected CEM cells assessed as inhibition of virus-induced cytopathicity after 6 days by XTT assay; format: functional, organism-based; conditions: CCRF-CEM, 144 h
Salmonella typhimurium = assay: Antimicrobial activity against Salmonella enterica subsp. enterica serovar Typhimurium after 18 to 20 hr by agar dilution method; format: functional
Vibrio parahaemolyticus = assay: Antimicrobial activity against Vibrio parahaemolyticus after 18 to 20 hr by agar dilution method; format: functional
[12] = Cytotoxicity against Homo sapiens (human) MT4 cells after 5 days by MTT assay; format: cell-based

COc1cc(Cc2cnc(/N=C3\C(=O)N(CN4CCN(c5ccccn5)CC4)c4ccc(Cl)cc43)nc2N)cc(OC)c1OC
inhibition (INH) (Hepatitis C virus): 89%
Activity [1]: 23.55%
MIC (Proteus vulgaris): 625 µg/mL (≈ 993 µM)
MIC (Shigella sonnei): 1250 µg/mL (≈ 1990 µM)
MIC (Klebsiella pneumoniae [2]): 1250 µg/mL (≈ 1990 µM)
inhibition at 6.25 µg/mL [3]: 23%
MIC (Citrobacter freundii): 625 µg/mL (≈ 993 µM)
MIC (Staphylococcus aureus): 1250 µg/mL (≈ 1990 µM)
MIC (Escherichia coli): 1250 µg/mL (≈ 1990 µM)
MIC (Salmonella typhi): 1250 µg/mL (≈ 1990 µM)
MIC (Shigella boydii): 2.44 µg/mL (≈ 3.88 µM)
MIC (Vibrio fluvialis): 1250 µg/mL (≈ 1990 µM)
MIC (Vibrio cholerae [4]): 312 µg/mL (≈ 497 µM)
EC50 [5]: > 39.2 µg/mL
MIC (Vibrio cholerae [6]): 9.76 µg/mL (≈ 15.5 µM)
MIC (Morganella morganii): 312 µg/mL (≈ 497 µM)
MIC (Priestia megaterium): 1250 µg/mL (≈ 1990 µM)
Activity [7]: 16.6%
MIC (Enterobacter): 1250 µg/mL (≈ 1990 µM)
MIC (Pseudomonas aeruginosa): 1250 µg/mL (≈ 1990 µM)
MIC (Salmonella paratyphi): 312 µg/mL (≈ 497 µM)
CC50 at 120 h [8]: 29.4 µg/mL (≈ 46.7 µM)
MIC (Klebsiella pneumoniae [9]): 625 µg/mL (≈ 993 µM)
MIC (Plesiomonas): 9.76 µg/mL (≈ 15.5 µM)
MIC (Edwardsiella tarda): 1250 µg/mL (≈ 1990 µM)
viability at 72 h, 50 ug/ml [10]: 101%
MIC (Vibrio mimicus): 1.22 µg/mL (≈ 1.94 µM)
MIC (Salmonella enteritidis): 1250 µg/mL (≈ 1990 µM)
MIC (Proteus mirabilis): 1250 µg/mL (≈ 1990 µM)
EC50 [11]: > 29.4 µg/mL
MIC (Salmonella typhimurium): 1250 µg/mL (≈ 1990 µM)
MIC (Vibrio parahaemolyticus): 1.22 µg/mL (≈ 1.94 µM)
CC50 at 120 h [12]: 39.2 µg/mL (≈ 62.3 µM)

COc1cc(Cc2cnc(/N=C3\C(=O)N(CN4CCC(C)CC4)c4ccc(Cl)cc43)nc2N)cc(OC)c1OC
inhibition (INH) (Hepatitis C virus): 81%
Activity [1]: 22.07%
MIC (Proteus vulgaris): 1250 µg/mL (≈ 2210 µM)
MIC (Shigella sonnei): 1250 µg/mL (≈ 2210 µM)
MIC (Klebsiella pneumoniae [2]): 1250 µg/mL (≈ 2210 µM)
inhibition at 6.25 µg/mL [3]: 15%
MIC (Citrobacter freundii): 312 µg/mL (≈ 553 µM)
MIC (Staphylococcus aureus): 1250 µg/mL (≈ 2210 µM)
MIC (Escherichia coli): 1250 µg/mL (≈ 2210 µM)
MIC (Salmonella typhi): 1250 µg/mL (≈ 2210 µM)
MIC (Shigella boydii): 4.88 µg/mL (≈ 8.64 µM)
MIC (Vibrio fluvialis): 1250 µg/mL (≈ 2210 µM)
MIC (Vibrio cholerae [4]): 1250 µg/mL (≈ 2210 µM)
EC50 [5]: > 67.4 µg/mL
MIC (Vibrio cholerae [6]): 4.88 µg/mL (≈ 8.64 µM)
MIC (Morganella morganii): 1250 µg/mL (≈ 2210 µM)
MIC (Priestia megaterium): 625 µg/mL (≈ 1110 µM)
Activity [7]: 41.7%
MIC (Enterobacter): 1250 µg/mL (≈ 2210 µM)
MIC (Pseudomonas aeruginosa): 1250 µg/mL (≈ 2210 µM)
MIC (Salmonella paratyphi): 312 µg/mL (≈ 553 µM)
CC50 at 120 h [8]: 46.3 µg/mL (≈ 81.9 µM)
MIC (Klebsiella pneumoniae [9]): 625 µg/mL (≈ 1110 µM)
MIC (Plesiomonas): 39.1 µg/mL (≈ 69.1 µM)
MIC (Edwardsiella tarda): 1250 µg/mL (≈ 2210 µM)
viability at 72 h, 50 ug/ml [10]: 108%
MIC (Vibrio mimicus): 1.22 µg/mL (≈ 2.16 µM)
MIC (Salmonella enteritidis): 1250 µg/mL (≈ 2210 µM)
MIC (Proteus mirabilis): 1250 µg/mL (≈ 2210 µM)
EC50 [11]: > 46.3 µg/mL
MIC (Salmonella typhimurium): 1250 µg/mL (≈ 2210 µM)
MIC (Vibrio parahaemolyticus): 2.44 µg/mL (≈ 4.32 µM)
CC50 at 120 h [12]: 67.4 µg/mL (≈ 119 µM)

COc1cc(Cc2cnc(/N=C3\C(=O)N(CN4CCN(Cc5ccccc5)CC4)c4ccc(Cl)cc43)nc2N)cc(OC)c1OC
inhibition (INH) (Hepatitis C virus): 66%
Activity [1]: 22.33%
MIC (Proteus vulgaris): 625 µg/mL (≈ 973 µM)
MIC (Shigella sonnei): 1250 µg/mL (≈ 1950 µM)
MIC (Klebsiella pneumoniae [2]): 625 µg/mL (≈ 973 µM)
inhibition at 6.25 µg/mL [3]: 50%
MIC (Citrobacter freundii): 625 µg/mL (≈ 973 µM)
MIC (Staphylococcus aureus): 625 µg/mL (≈ 973 µM)
MIC (Escherichia coli): 625 µg/mL (≈ 973 µM)
MIC (Salmonella typhi): 625 µg/mL (≈ 973 µM)
MIC (Shigella boydii): 39.1 µg/mL (≈ 60.8 µM)
MIC (Vibrio fluvialis): 625 µg/mL (≈ 973 µM)
MIC (Vibrio cholerae [4]): 625 µg/mL (≈ 973 µM)
EC50 [5]: > 36.1 µg/mL
MIC (Vibrio cholerae [6]): 4.88 µg/mL (≈ 7.6 µM)
MIC (Morganella morganii): 625 µg/mL (≈ 973 µM)
MIC (Priestia megaterium): 625 µg/mL (≈ 973 µM)
Activity [7]: 41.8%
MIC (Enterobacter): 625 µg/mL (≈ 973 µM)
MIC (Pseudomonas aeruginosa): 1250 µg/mL (≈ 1950 µM)
MIC (Salmonella paratyphi): 625 µg/mL (≈ 973 µM)
CC50 at 120 h [8]: 94.7 µg/mL (≈ 147 µM)
MIC (Klebsiella pneumoniae [9]): 1250 µg/mL (≈ 1950 µM)
MIC (Plesiomonas): 39.1 µg/mL (≈ 60.8 µM)
MIC (Edwardsiella tarda): 625 µg/mL (≈ 973 µM)
viability at 72 h, 50 ug/ml [10]: 79%
MIC (Vibrio mimicus): 2.44 µg/mL (≈ 3.8 µM)
MIC (Salmonella enteritidis): 625 µg/mL (≈ 973 µM)
MIC (Proteus mirabilis): 625 µg/mL (≈ 973 µM)
EC50 [11]: > 94.7 µg/mL
MIC (Salmonella typhimurium): 625 µg/mL (≈ 973 µM)
MIC (Vibrio parahaemolyticus): 9.76 µg/mL (≈ 15.2 µM)
CC50 at 120 h [12]: 36.1 µg/mL (≈ 56.2 µM)

COc1c(N2CCNC(C)C2)c(F)cc2c(=O)c(C(=O)O)cn(C3CC3)c12 (stereo not drawn) [GATIFLOXACIN]
MIC (Proteus vulgaris): 0.02 µg/mL (≈ 0.0533 µM)
MIC (Shigella sonnei): 0.08 µg/mL (≈ 0.213 µM)
MIC (Klebsiella pneumoniae [2]): 0.08 µg/mL (≈ 0.213 µM)
MIC (Citrobacter freundii): 0.08 µg/mL (≈ 0.213 µM)
MIC (Staphylococcus aureus): 0.02 µg/mL (≈ 0.0533 µM)
MIC (Escherichia coli): 0.02 µg/mL (≈ 0.0533 µM)
MIC (Salmonella typhi): 0.02 µg/mL (≈ 0.0533 µM)
MIC (Shigella boydii): 1.22 µg/mL (≈ 3.25 µM)
MIC (Vibrio fluvialis): 0.02 µg/mL (≈ 0.0533 µM)
MIC (Vibrio cholerae [4]): 0.02 µg/mL (≈ 0.0533 µM)
MIC (Vibrio cholerae [6]): 0.02 µg/mL (≈ 0.0533 µM)
MIC (Morganella morganii): 0.02 µg/mL (≈ 0.0533 µM)
MIC (Priestia megaterium): 0.08 µg/mL (≈ 0.213 µM)
MIC (Enterobacter): 0.02 µg/mL (≈ 0.0533 µM)
MIC (Pseudomonas aeruginosa): 0.15 µg/mL (≈ 0.4 µM)
MIC (Salmonella paratyphi): 0.02 µg/mL (≈ 0.0533 µM)
MIC (Klebsiella pneumoniae [9]): 0.08 µg/mL (≈ 0.213 µM)
MIC (Plesiomonas): 2.44 µg/mL (≈ 6.5 µM)
MIC (Edwardsiella tarda): 0.02 µg/mL (≈ 0.0533 µM)
MIC (Vibrio mimicus): 0.15 µg/mL (≈ 0.4 µM)
MIC (Salmonella enteritidis): 0.02 µg/mL (≈ 0.0533 µM)
MIC (Proteus mirabilis): 0.02 µg/mL (≈ 0.0533 µM)
MIC (Salmonella typhimurium): 0.02 µg/mL (≈ 0.0533 µM)
MIC (Vibrio parahaemolyticus): 9.77 µg/mL (≈ 26 µM)
